Results as given in patent US10562843B2 (The United States of America, as represented by the …, priority 2006, dated 2020).
Structures can show the parent of a compound that is named as a salt. Where two headings read alike, the source gives them in different places.

Assays:
in vivo = details: male, Sprague-Dawley, rat, plasma, iv, 5 mg/kg
[1] = IV 5 mg/kg; for Average plasma concentration: average of rats
human β2-AR = human β2-AR (Homo sapiens, UniProt P07550)
[2] = tested on: single ventricular myocytes; test: Cardiomyocyte contractility, single dose, with and without ICI 118,551; type: cell-based
Procedure: In these studies, the contraction amplitude indexed by electrical pacing induced shortening of cell length was measured in single ventricular myocytes before and after exposure to a single dose of the test compounds.

[3] = tested on: freshly isolated adult rat cardiomyocytes; test: Cardiomyocyte contractility, dose-response; type: cell-based; details: for maximum contractile response: 10^−8 to 10^−5 M; for EC50: contractility dose-response
Procedure: All studies were performed within 8 hours of cell isolation.
The cells were placed on the stage of an inverted microscope (Zeiss model IM-35, Zeiss, Thornwood, N.Y.), perfused with the HEPES-buffered solution at a flow rate of 1.8 mL/minutes, and electrically stimulated at 0.5 Hz at 23° C. Cell length was monitored by an optical edge-tracking method using a photodiode array (Model 1024 SAQ, Reticon, Boston, Mass.) with a 3 ms time resolution. Cell contraction was measured by the percent shortening of cell length following electrical stimulation.

[4] = Average plasma concentration, average of rats, IV 5 mg/kg
[5] = Individual plasma concentration, individual rat, IV 5 mg/kg

human β2-AR, sequence (P07550 whole entry): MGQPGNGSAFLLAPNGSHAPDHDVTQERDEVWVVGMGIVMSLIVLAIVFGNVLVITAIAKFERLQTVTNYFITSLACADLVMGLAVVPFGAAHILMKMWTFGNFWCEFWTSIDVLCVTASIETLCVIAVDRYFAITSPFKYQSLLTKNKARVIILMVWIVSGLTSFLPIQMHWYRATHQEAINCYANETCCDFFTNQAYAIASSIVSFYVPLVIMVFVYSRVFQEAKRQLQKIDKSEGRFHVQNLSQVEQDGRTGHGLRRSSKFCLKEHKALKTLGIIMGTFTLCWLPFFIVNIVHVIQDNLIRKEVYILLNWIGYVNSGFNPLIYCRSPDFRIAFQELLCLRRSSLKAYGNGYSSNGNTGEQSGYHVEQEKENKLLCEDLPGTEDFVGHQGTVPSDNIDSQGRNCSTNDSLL

For `COc1ccc(C[C@@H](C)NC[C@H](O)c2cc(O)cc(O)c2)cc1` [(R,R)-2, (R,R)-(−)-1-p-Methoxyphenyl-2-(β-3′,5′-dihydroxy-phenyl-β-oxy)ethylamino-propane Fumarate], which AUC (in vivo) is on record?
Its AUC is 1600 ng·h/mL.

And the Vd (in vivo)?
The Vd was 2.19 L.

And the clearance (in vivo)?
The clearance was 15.4 mL/min.

And the half-life (in vivo)?
Its half-life is 13.2 min.

And the concentration at 5 min (in vivo; [4])?
The concentration at 5 min was 2120 ng/mL.

And the concentration at 15 min (in vivo; [4])?
The concentration at 15 min was 580 ng/mL.

What about the concentration at 30 min (in vivo; [4]) of the same molecule?
Its concentration at 30 min is 410 ng/mL.

And the concentration at 60 min (in vivo; [4])?
Its concentration at 60 min is 260 ng/mL.

And the concentration at 120 min (in vivo; [4])?
Its concentration at 120 min is 170 ng/mL.

And the concentration at 240 min (in vivo; Average plasma concentration, average of rats, IV 5 mg/kg, 240 min)?
Its concentration at 240 min is 120 ng/mL.

And the concentration at 300 min (in vivo; [4])?
Its concentration at 300 min is 70 ng/mL.

And the concentration at 360 min (in vivo; [4])?
Its concentration at 360 min is 60 ng/mL.

And the concentration at 5 min (in vivo; [5])?
The concentration at 5 min was 1940 ng/mL.

And the concentration at 15 min (in vivo; [5])?
Its concentration at 15 min is 480 ng/mL.

What about the concentration at 30 min (in vivo; [5]) of the same molecule?
The concentration at 30 min was 310 ng/mL.

What about the concentration at 60 min (in vivo; [5]) of the same molecule?
The concentration at 60 min was 230 ng/mL.

And the concentration at 120 min (in vivo; [5])?
The concentration at 120 min was 140 ng/mL.

And the concentration at 300 min (in vivo; [5])?
The concentration at 300 min was 60 ng/mL.

And the concentration at 360 min (in vivo; [5])?
Its concentration at 360 min is 50 ng/mL.

And the “systemic exposure (AUC) and clearance compared to (R,R)-fenoterol” value ([1]; rat)?
The value was “significantly higher systemic exposure (AUC) and longer clearance”.

Which results are given for `C[C@H](Cc1cccc2ccccc12)NC[C@H](O)c1cc(O)cc(O)c1.O=C(O)/C=C/C(=O)O` [(R,R)-5, (R,R)-(−)-5-{1-hydroxy-2-[1-methyl-2-(1-naphthyl)ethylamino]ethyl}-1,3-benzenediol fumarate]?
Ki β1/Ki β2 (human β2-AR): 14; concentration eliciting maximum effect [2]: 0.1 µM

With `C[C@@H](Cc1ccc(O)cc1)NC[C@@H](O)c1cc(O)cc(O)c1` [(S,S)-1, (S,S)-(+)-Fenoterol] as the molecule, how does the contractile response ([2]; single dose, ICI 118,551 10^−7 mol/L) read?
The contractile response was “no observed pharmacological effect”.

What about the inotropic effect [3] of the same molecule?
Its inotropic effect is “only a minor positive inotropic effect”.

Which “Ki β1/Ki β2” value (human β2-AR) does the source give for `C[C@H](Cc1cccc2ccccc12)NC[C@@H](O)c1cc(O)cc(O)c1.O=C(O)/C=C/C(=O)O` (racemic) [(S,R)-5, (S,R)-(+)-5-{1-hydroxy-2-[1-methyl-2-(1-naphthyl)ethylamino]ethyl}-1,3-benzenediol fumarate] here?
The value was 19.

With `CC(Cc1ccc(O)cc1)NCC(O)c1ccc(O)c(O)c1` (racemic) [(±)-fenoterol, 5-[1-hydroxy-2[[2-(4-hydroxyphenyl)-1-methylethyl]-amino]ethyl]1,2-benzenediol, reference compound] as the molecule, how does the maximum contractile response [3] read?
Its maximum contractile response is 265±11.6 % resting cell length.

What about the EC50 ([3]; Rattus norvegicus, Cardiomyocyte, read-out: EC50 (converted)) of the same molecule?
The EC50 was 100 nM.

What does the source list for `C[C@H](Cc1ccc(O)cc1)NC[C@H](O)c1cc(O)cc(O)c1` [(R,R)-1, (R,R)-(−)-Fenoterol]?
Average plasma concentration ([1]; 5 min): 1.34 µg/mL; Average plasma concentration ([1]; 15 min): 0.36 µg/mL; Average plasma concentration ([1]; 30 min): 0.34 µg/mL; Average plasma concentration ([1]; 60 min): 0.05 µg/mL; Average plasma concentration ([1]; 120 min): 0.02 µg/mL; Average plasma concentration ([1]; 240 min): 0.01 µg/mL; Average plasma concentration ([1]; 300 min): 0.005 µg/mL; Average plasma concentration ([1]; 360 min): 0.06 µg/mL; AUC ([1]; rat, two-compartment open model): 29.6861 µg·min/mL; maximum contractile response [3]: 306±11.8 % resting cell length; EC50 [3]: −7.1±0.2 log [M]

Which “Ki β1/Ki β2” value (human β2-AR) does the source give for `C[C@@H](Cc1cccc2ccccc12)NC[C@H](O)c1cc(O)cc(O)c1.O=C(O)/C=C/C(=O)O` [(R,S)-5, (R,S)-(−)-5-{1-hydroxy-2-[1-methyl-2-(1-naphthyl)ethylamino]ethyl}-1,3-benzenediol fumarate] here?
Its value is 46.

And the “systemic exposure (AUC) and clearance compared to (R,R)-fenoterol” value ([1]; rat)?
Its value is “significantly higher systemic exposure (AUC) and longer clearance”.

What about the “concentration eliciting maximum effect” value [2] of the same molecule?
Its value is 0.1 µM.
